Measurements taken from ChEMBL document CHEMBL4257456, “Molecular modeling study, synthesis and biological evaluation of combretastatin A-4 analogues as anticancer agents and tubulin inhibitors” (Medchemcomm, 2018).

Tests used:
MGC-803 = assay: Antiproliferative activity against human MGC803 cells after 72 hrs by CCK-8 assay; type: functional, cell-based; conditions: MGC-803, 72 h
HCT-116 = assay: Antiproliferative activity against human HCT116 cells after 72 hrs by CCK-8 assay; type: functional, cell-based; conditions: HCT-116, 72 h
A549 = assay: Antiproliferative activity against human A549 cells after 72 hrs by CCK-8 assay; type: functional, cell-based; conditions: A549, 72 h
MCF7 = assay: Antiproliferative activity against human MCF7 cells after 72 hrs by CCK-8 assay; type: functional, cell-based; conditions: MCF7, 72 h
HeLa = assay: Antiproliferative activity against human HeLa cells after 72 hrs by CCK-8 assay; type: functional, cell-based
HepG2 = assay: Antiproliferative activity against human HepG2 cells after 72 hrs by CCK-8 assay; type: functional, cell-based; conditions: HepG2, 72 h
[1] = Inhibition of pig brain tubulin polymerization by spectrophotometric analysis; parameters: species or system Sus scrofa

Row | IC50 [1] | SMILES | IC50 (MGC-803) | IC50 (HCT-116) | IC50 (A549) | IC50 (MCF7) | IC50 (HeLa) | IC50 (HepG2)
1 | 0.86 µM | CCOc1ccc(-c2oc3cc(OC)ccc3c2C(=O)c2cc(OC)c(OC)c(OC)c2)cc1 | 9.97 µM | 12.6 µM | 1.37 µM | 0.91 µM | 8.99 µM | 1.31 µM
2 | > 200 µM | COc1ccc(-c2oc3cc(OC)c(F)cc3c2C(=O)c2cc(OC)c(OC)c(OC)c2)cc1 | 47.3 µM | 78.2 µM | 6.87 µM | 6.49 µM | 19.1 µM | 4.75 µM
3 | > 200 µM | CCOc1ccc(-c2[nH]c3cc(OC)ccc3c2C(=O)c2cc(OC)c(OC)c(OC)c2)cc1 |  |  |  |  |  | 

The next lines start with the compound.

Row | SMILES | IC50 [1] | IC50 (MGC-803) | IC50 (HCT-116) | IC50 (A549) | IC50 (MCF7) | IC50 (HeLa) | IC50 (HepG2)
4 | COc1ccc(/C=C\c2cc(OC)c(OC)c(OC)c2)cc1OP(=O)(O)O [FOSBRETABULIN DISODIUM] | 4.79 µM | 0.47 µM | 0.24 µM | 0.4 µM | 0.96 µM | 0.56 µM | 0.27 µM
5 | COc1ccc(/C=C\c2cc(OC)c(OC)c(OC)c2)cc1O [COMBRETASTATIN A4] | 0.88 µM | 1.76 µM | 9 µM | 5.99 µM | 0.67 µM | 11.3 µM | 16 µM
